The values that follow come from patent US8207209B2, “Methods of inhibiting viral infection” (priority 2007, dated 2012).

Molecules are shown by their SMILES.

This assay deals with Ebola virus. Also noted: species or system mice. The following applies: mouse, in vivo.

`Cc1cc(NCCCN(C)C)c2ccc3c(ccc4c(NCCCN(C)C)cc(C)nc43)c2n1.Cl.Cl.Cl.Cl` [Compound 365, Quino[8,7-h]quinoline-1,7-diamine,N,N′-bis[3-(dimethylamino)propyl]-3,9-dimethyl-tetrahydrochloride] gave a protection of 100%. Take `N=C(N)c1ccc2oc(C=Cc3nc4ccc(C(=N)N)cc4[nH]3)cc2c1` [Compound 723, 2-[2-(5-carbamimidoyl-benzofuran-2-yl)-vinyl]-3H-benzoimidazole-5-carboxamidine]: the “effectiveness of single dose 4 days after challenge” value is given as “effectiveness”.
